One assay deals with LNCaP cells. As to the kind of experiment: Cell proliferation assay (MTS) in LNCaP cells. As to conditions: five days. It counts as cell-based, human. Here is the method:
(§1) A human prostate cancer cell line, LNCaP (American Type Culture Collection (ATCC), Manassas, Va.), was grown in RPMI 1640 medium (Mediatech, Herndon, Va.) supplemented with 5% fetal bovine serum (FBS) and 5% CO2 at 37° C. until reaching approximately 50-70% confluence. The media were changed to serum-free RPMI 1640 at 24 hrs prior to performing experiments to deplete undesired steroids. Cells were then treated with 5% charcoal-stripped FBS RPMI 1640 containing POH (all from Sigma (St. Louis, Mo.), dissolved in DMSO) at indicated concentrations with or without 1 nM of mibolerone (Mib) (from New England Nuclear (St. Louis, Mo.), dissolved in ethanol), a non-metabolizable synthetic androgen. Equivalent amounts of solvent were added to control cells.
(§2) LNCaP cells were seeded at 4×10^4/well in 24-well dishes and treated with POH at indicated concentrations in the presence of 1 nM Mib. Five days later, cell proliferation was measured using an MTS assay kit (Promega, Madison, Wis.), and PSA and hK2 levels in spent media were determined by the Tandem-E PSA kit (Hybritech Inc., San Diego, Calif.) or Mayo's hK2 assay (Zhang et al., 1999, Endocrin., 140:1665-71). Protein levels of PSA and hK2 were normalized to the MTS measurements.

The test system of a further assay is PSA. Kind of assay: PSA quantification in spent media of LNCaP cells (Tandem-E PSA kit). It counts as cell-based, human. As to conditions: 1 nM Mib, five days, normalized to MTS; FIG. 2A. Here is the method:
as §1, §2

For another assay, the system named is hK2. Kind of assay: hK2 quantification in spent media of LNCaP cells (Mayo's hK2 assay). It counts as cell-based, human. As to conditions: 1 nM Mib, five days, normalized to MTS; FIG. 2B. Here is the method:
as §1, §2

The subject of assay [1] is androgen receptor. As to the kind of experiment: Transient transfection luciferase reporter assay, PSA promoter, in LNCaP cells. As to conditions: 1 nM Mib, 24 hrs, FIG. 3A. It counts as cell-based, human. An excerpt:
(§3) The 6 Kb PSA promoter and the androgen receptor promoter constructs (pGL3 SV40, pGL3 SV40-3 ARE, pGL3 or PSA promoter/pGL3) were described previously (Id). To make an hk2 androgen responsive element (hk2 ARE) construct, a DNA fragment containing three copies of hk2 ARE (5′-[…]-3′ (SEQ ID NO:1)) was synthesized by the Mayo Molecular Core Facility. The synthesized fragment, including SacI and XhoI restriction enzyme sites at the 5′ and 3′-end, respectively, was digested with SacI and XhoI according to manufacturer's instructions and inserted into a pre-cut pGL3-Promoter vector (Promega). The fidelity of this construct was confirmed by DNA sequencing.
(§4) LNCaP cells in duplicate plates were co-transfected with a CMV-β galactosidase (β-gal) expression vector (0.3 μg/plate) and one of the following: a pGL3-Basic luciferase vector (Promega) containing the PSA promoter (nucleotides 1-5836 of GenBank Accession No. U37672), a pGL3-Promoter luciferase vector (Promega) containing three copies of hk2 ARE, a PGL3 vector or PSA promoter/PGL3 vector. Transfections were performed using a liposome method with dimethyldioctadecyl-ammonium bromide (Sigma) and L-lecithin (Sigma) (4:10). Cells were then treated with POH in the presence or absence of 1 nM Mib for 24 hrs. Cell extracts were prepared and used for luciferase and β-gal assays (Promega). […]
A general note: In a reporter assay the amount or activity of a reporter protein is the signal.

Assay [2] deals with androgen receptor. As to the kind of experiment: Transient transfection luciferase reporter assay, 3 copies of hK2 ARE, in LNCaP cells. To be noted: minimum SV40 promoter and 3 copies of hK2 ARE, 1 nM Mib, 24 hrs, FIG. 3B. It counts as cell-based, human.
From the text: as §3, §4

The test system of assay [3] is androgen receptor. As to the kind of experiment: Western blot analysis of androgen receptor protein in LNCaP cells. It counts as cell-based, human. To be noted: POH until a concentration of 1 μM is reached, 1 nM Mib, 24 hrs. Here is the method: LNCaP cells were treated with the indicated concentrations of POH in the presence of 1 nM Mib for 24 hrs. Cells were then harvested, and whole-cell lysates and nuclear extracts were prepared as described (Mitchell et al., 1999, Cancer Res., 59:5892-5). Western blot analysis was performed according to the protocol described (Id). A mouse antibody against the human androgen receptor (1:1000 or 1:2000 dilution) (Pharmingen, San Diego, Calif.) or human tubulin (1:10,000 dilution) (Santa Cruz, Santa Cruz, Calif.) was used as the primary antibody. Ponceau S staining was used for monitoring protein loading and transfer efficiency (Id).
(Immunoblotting shows a protein as a band on a membrane.)

Assay [4] concerns androgen receptor promoter. As to the kind of experiment: Luciferase reporter assay with androgen receptor promoter in LNCaP cells. It counts as cell-based, human.
From the text: as §3, §4

A further assay deals with c-jun. As to the kind of experiment: Expression of c-jun protein after POH treatment. It counts as cell-based. To be noted: normalized data, FIG. 6. Here is the method:
In order to ascertain how androgen receptor function was being inhibited by POH at levels below 1 μM, c-jun was examined. […] The graph depicts the normalized data. This experiment was repeated twice and representative data is shown.

Each structure is given as a SMILES string.

In the case of `C[C@@H]1CC2=CC(=O)CC[C@@H]2[C@H]2CC[C@@]3(C)[C@@H](CC[C@]3(C)O)[C@@H]21` [Mib, mibolerone], the LNCaP cell proliferation entry in the assay on LNCaP cells (presence of Mib (1 nM), FIG. 1) is recorded as “significantly increased”.

With `C=C(C)[C@@H]1CC=C(CO)CC1` [POH, Perillyl alcohol], in the assay with LNCaP cells (POH in the presence of 1 nM Mib, p<0.05, FIG. 1), the “proliferation of LNCaP cells” value was “significantly inhibited”. The “accumulation of PSA protein in LNCaP cells stimulated by androgens” value in the assay with PSA was “inhibited”. The “accumulation of hK2 protein in LNCaP cells stimulated by androgens” value with hK2 is “inhibited”. In addition, in the assay with androgen receptor [1], the “androgenic inducibility of the PSA promoter (luciferase reporter)” value is recorded as “significantly reduced”. Also, the ARE-regulated luciferase activity result with androgen receptor [2] is reported as “inhibited”. Besides, in the assay on androgen receptor [3], the “androgen-enhanced androgen receptor protein levels” value is reported as “not affected”. The “androgen receptor promoter activity” value in assay [4] (POH at 1 μM) is given as “drastically reduced”; in assay [4] (POH below 1 μM), “not affected”. Moreover, the level of c-jun entry in the assay on c-jun is recorded as “up to 3.5 times the control levels”.
